Experimental data from ChEMBL document CHEMBL1201861, “Genomics of Drug Sensitity in Cancer screening data, Wellcome Trust Sanger Institute”.

Experiments:
Test in all cases: cells
TE-8 = type: functional, cell-based, Homo sapiens; conditions: Homo sapiens, TE-8;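 further: growth inhibition of TE-8 cells, measured with a cell viability readout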
Description: SANGER: Inhibition of human TE-8 cell growth in a cell viability assay.

NCI-H1395 = type: functional, cell-based, Homo sapiens; conditions: Homo sapiens, NCI-H1395;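 further: cell viability assay read-out quantifying reduced proliferation of human NCI-H1395 cells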
Description: SANGER: Inhibition of human NCI-H1395 cell growth in a cell viability assay.

NMC-G1 = type: functional, cell-based, Homo sapiens; conditions: Homo sapiens, NMC-G1;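 further: growth inhibition of the NMC-G1 cell line, measured with a cell viability read-out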
Description: SANGER: Inhibition of human NMC-G1 cell growth in a cell viability assay.

EW-16 = type: functional, cell-based, Homo sapiens; conditions: Homo sapiens, EW-16;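 further: growth inhibition of human EW-16 cells, read out as cell viability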
Description: SANGER: Inhibition of human EW-16 cell growth in a cell viability assay.

KM-H2 = type: functional, cell-based, Homo sapiens; conditions: Homo sapiens, KM-H2;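 further: growth inhibition of KM-H2 cells, read out by a cell viability assay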
Description: SANGER: Inhibition of human KM-H2 cell growth in a cell viability assay.

NCI-H1581 = type: functional, cell-based, Homo sapiens; conditions: Homo sapiens, NCI-H1581;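 further: cell growth inhibition read out by a viability assay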
Description: SANGER: Inhibition of human NCI-H1581 cell growth in a cell viability assay.

CTB-1 = type: functional, cell-based, Homo sapiens; conditions: Homo sapiens, CTB-1
Description: SANGER: Inhibition of human CTB-1 cell growth in a cell viability assay.

RPMI-8226 = type: functional, cell-based, Homo sapiens; conditions: Homo sapiens, RPMI-8226
Description: SANGER: Inhibition of human RPMI-8226 cell growth in a cell viability assay.

COLO-800 = type: functional, cell-based, Homo sapiens; conditions: Homo sapiens, COLO-800;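 further: growth inhibition of COLO-800 cells, read out with a cell viability assay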
Description: SANGER: Inhibition of human COLO-800 cell growth in a cell viability assay.

OVCAR-4 = type: functional, cell-based, Homo sapiens; conditions: Homo sapiens, OVCAR-4;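 further: growth inhibition of human OVCAR-4 cells, measured with a cell viability assay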
Description: SANGER: Inhibition of human OVCAR-4 cell growth in a cell viability assay.

NCI-H69 = type: functional, cell-based, Homo sapiens; conditions: Homo sapiens, NCI-H69;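 further: growth inhibition of the cell line, read out with a cell viability assay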
Description: SANGER: Inhibition of human NCI-H69 cell growth in a cell viability assay.

LC-2-ad = type: functional, cell-based, Homo sapiens; conditions: Homo sapiens, LC-2-ad;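 further: growth inhibition of human LC-2-ad cells, read out with a cell viability assay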
Description: SANGER: Inhibition of human LC-2-ad cell growth in a cell viability assay.

NCI-H1648 = type: functional, cell-based, Homo sapiens; conditions: Homo sapiens, NCI-H1648;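 further: cell viability assay measuring inhibition of NCI-H1648 cell growth, from the Sanger screening data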
Description: SANGER: Inhibition of human NCI-H1648 cell growth in a cell viability assay.

SK-MEL-1 = type: functional, cell-based, Homo sapiens; conditions: Homo sapiens, SK-MEL-1;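 further: growth inhibition of human SK-MEL-1 cells, read out by a cell viability assay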
Description: SANGER: Inhibition of human SK-MEL-1 cell growth in a cell viability assay.

LAN-6 = type: functional, cell-based, Homo sapiens; conditions: Homo sapiens, LAN-6;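 further: growth inhibition of LAN-6 cells, determined with a cell viability assay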
Description: SANGER: Inhibition of human LAN-6 cell growth in a cell viability assay.

Lu-65 = type: functional, cell-based, Homo sapiens; conditions: Homo sapiens, Lu-65;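 further: growth inhibition of Lu-65 cancer cells, read out by a cell viability assay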
Description: SANGER: Inhibition of human LU-65 cell growth in a cell viability assay.

C8166 = type: functional, cell-based, Homo sapiens; conditions: Homo sapiens, C8166;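 further: growth inhibition of human C8166 cells measured by a cell viability assay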
Description: SANGER: Inhibition of human C8166 cell growth in a cell viability assay.

RS4-11 = type: functional, cell-based, Homo sapiens; conditions: Homo sapiens, RS4-11;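 further: growth inhibition of RS4-11 cells, read out by a cell viability assay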
Description: SANGER: Inhibition of human RS4-11 cell growth in a cell viability assay.

RCC10RGB = type: functional, cell-based, Homo sapiens; conditions: Homo sapiens, RCC10RGB;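 further: growth inhibition of human RCC10RGB cells, read out by a cell viability assay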
Description: SANGER: Inhibition of human RCC10RGB cell growth in a cell viability assay.

GI-ME-N = type: functional, cell-based, Homo sapiens; conditions: Homo sapiens, GI-ME-N;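 further: growth inhibition of human GI-ME-N cells, read out with a cell viability assay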
Description: SANGER: Inhibition of human GI-ME-N cell growth in a cell viability assay.

MN-60 = type: functional, cell-based, Homo sapiens; conditions: Homo sapiens, MN-60;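 further: growth inhibition of the MN-60 cell line, determined with a cell viability assay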
Description: SANGER: Inhibition of human MN-60 cell growth in a cell viability assay.

TGW = type: functional, cell-based, Homo sapiens; conditions: Homo sapiens, TGW;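 further: growth inhibition of human TGW cells, read out with a cell viability assay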
Description: SANGER: Inhibition of human TGW cell growth in a cell viability assay.

SCH = type: functional, cell-based, Homo sapiens; conditions: Homo sapiens, SCH;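 further: growth inhibition of human SCH cells, read out in a cell viability assay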
Description: SANGER: Inhibition of human SCH cell growth in a cell viability assay.

DB = type: functional, cell-based, Homo sapiens; conditions: Homo sapiens, DB
Description: SANGER: Inhibition of human DB cell growth in a cell viability assay.

SBC-1 = type: functional, cell-based, Homo sapiens; conditions: Homo sapiens, SBC-1;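 further: cell viability assay measuring growth inhibition of the SBC-1 cell line, IC50 being the concentration that halves growth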
Description: SANGER: Inhibition of human SBC-1 cell growth in a cell viability assay.

KS-1 = type: functional, cell-based; conditions: Homo sapiens;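 further: growth inhibition of KS-1 cells, read out with a cell viability assay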
Description: SANGER: Inhibition of human KS-1 cell growth in a cell viability assay.

LNCaP-Clone-FGC = type: functional, cell-based, Homo sapiens; conditions: Homo sapiens, LNCaP-Clone-FGC
Description: SANGER: Inhibition of human LNCaP-Clone-FGC cell growth in a cell viability assay.

no-11 = type: functional, cell-based, Homo sapiens; conditions: Homo sapiens;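 further: growth inhibition of human NO-11 cells, read out with a cell viability assay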
Description: SANGER: Inhibition of human no-11 cell growth in a cell viability assay.

SK-UT-1 = type: functional, cell-based, Homo sapiens; conditions: Homo sapiens, SK-UT-1;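 further: growth inhibition of SK-UT-1 cells, measured by a cell viability assay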
Description: SANGER: Inhibition of human SK-UT-1 cell growth in a cell viability assay.

NCI-H1092 = type: functional, cell-based, Homo sapiens; conditions: Homo sapiens, NCI-H1092;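 further: cell growth inhibition measured with a cell viability assay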
Description: SANGER: Inhibition of human NCI-H1092 cell growth in a cell viability assay.

HD-MY-Z = type: functional, cell-based, Homo sapiens; conditions: Homo sapiens, HD-MY-Z;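 further: growth inhibition of HD-MY-Z cells, read out with a cell viability assay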
Description: SANGER: Inhibition of human HD-MY-Z cell growth in a cell viability assay.

GOTO = type: functional, cell-based, Homo sapiens; conditions: Homo sapiens, GOTO;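 further: growth inhibition of GOTO cells, read out by a cell viability assay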
Description: SANGER: Inhibition of human GOTO cell growth in a cell viability assay.

KURAMOCHI = type: functional, cell-based, Homo sapiens; conditions: Homo sapiens, KURAMOCHI;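 further: growth inhibition of KURAMOCHI cells, read out with a cell viability assay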
Description: SANGER: Inhibition of human KURAMOCHI cell growth in a cell viability assay.

NB10 = type: functional, cell-based, Homo sapiens; conditions: Homo sapiens, NB10;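 further: growth inhibition of NB10 cells, read out by a cell viability assay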
Description: SANGER: Inhibition of human NB10 cell growth in a cell viability assay.

HEL = type: functional, cell-based, Homo sapiens; conditions: Homo sapiens, HEL;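 further: growth inhibition of HEL cells, read out with a cell viability assay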
Description: SANGER: Inhibition of human HEL cell growth in a cell viability assay.

IST-SL1 = type: functional, cell-based, Homo sapiens; conditions: Homo sapiens, IST-SL1;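 further: growth inhibition of human IST-SL1 cells, read out with a cell viability assay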
Description: SANGER: Inhibition of human IST-SL1 cell growth in a cell viability assay.

MOLT-16 = type: functional, cell-based, Homo sapiens; conditions: Homo sapiens, MOLT-16;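 further: growth inhibition of human MOLT-16 cells, read out with a cell viability assay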
Description: SANGER: Inhibition of human MOLT-16 cell growth in a cell viability assay.

HAL-01 = type: functional, cell-based, Homo sapiens; conditions: Homo sapiens, HAL-01;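 further: growth inhibition of human HAL-01 cells, read out with a cell viability assay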
Description: SANGER: Inhibition of human HAL-01 cell growth in a cell viability assay.

NCI-H23 = type: functional, cell-based, Homo sapiens; conditions: Homo sapiens, NCI-H23;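 further: cell viability assay measuring growth inhibition of NCI-H23 cells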
Description: SANGER: Inhibition of human NCI-H23 cell growth in a cell viability assay.

COLO-829 = type: functional, cell-based, Homo sapiens; conditions: Homo sapiens, COLO-829
Description: SANGER: Inhibition of human COLO-829 cell growth in a cell viability assay.

GT3TKB = type: functional, cell-based, Homo sapiens; conditions: Homo sapiens, GT3TKB;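 further: growth inhibition of the cell line, read out with a cell viability assay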
Description: SANGER: Inhibition of human GT3TKB cell growth in a cell viability assay.

ONS-76 = type: functional, cell-based, Homo sapiens; conditions: Homo sapiens, ONS-76;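 further: growth inhibition of human ONS-76 cells, read out with a cell viability assay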
Description: SANGER: Inhibition of human ONS-76 cell growth in a cell viability assay.

ALL-PO = type: functional, cell-based, Homo sapiens; conditions: Homo sapiens, ALL-PO;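 further: growth inhibition of ALL-PO cells, read out by a cell viability assay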
Description: SANGER: Inhibition of human ALL-PO cell growth in a cell viability assay.

NKM-1 = type: functional, cell-based, Homo sapiens; conditions: Homo sapiens, NKM-1;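 further: growth inhibition of NKM-1 cells, read out with a cell viability assay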
Description: SANGER: Inhibition of human NKM-1 cell growth in a cell viability assay.

NCI-H1838 = type: functional, cell-based, Homo sapiens; conditions: Homo sapiens, NCI-H1838;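 further: growth inhibition of NCI-H1838 cells, determined with a cell viability readout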
Description: SANGER: Inhibition of human NCI-H1838 cell growth in a cell viability assay.

KALS-1 = type: functional, cell-based, Homo sapiens; conditions: Homo sapiens, KALS-1; read-out: IC50;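 further: growth inhibition of KALS-1 cells, determined with a cell viability assay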
Description: SANGER: Inhibition of human KALS-1 cell growth in a cell viability assay.

ATN-1 = type: functional, cell-based, Homo sapiens; conditions: Homo sapiens, ATN-1;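 further: growth inhibition of human ATN-1 cells, read out with a cell viability assay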
Description: SANGER: Inhibition of human ATN-1 cell growth in a cell viability assay.

LXF-289 cell line = type: functional, cell-based; conditions: Homo sapiens
Description: SANGER: Inhibition of human LXF-289 cell growth in a cell viability assay.

NB5 = type: functional, cell-based, Homo sapiens; conditions: Homo sapiens, NB5;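 further: growth inhibition of NB5 cells, read out as cell viability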
Description: SANGER: Inhibition of human NB5 cell growth in a cell viability assay.

With `C=CC(=O)N1CCCC(Nc2nc(Nc3ccc(N(C)C(=O)CC)cc3)nc3[nH]cnc23)C1` (stereo not drawn) the IC50 (TE-8) was > 10.2 µM, the IC50 (NCI-H1395) was > 10.2 µM and the IC50 (NMC-G1) was > 10.2 µM. For the same compound, the IC50 (EW-16) was 2.59 µM, the IC50 (KM-H2) was > 10.2 µM and the IC50 (NCI-H1581) was > 10.2 µM. For the same compound, the IC50 (CTB-1) was > 10.2 µM, the IC50 (RPMI-8226) was > 10.2 µM and the IC50 (COLO-800) was > 10.2 µM. For the same compound, the IC50 (OVCAR-4) was > 10.2 µM, the IC50 (NCI-H69) was > 10.2 µM and the IC50 (LC-2-ad) was 7.27 µM. The IC50 (NCI-H1648) was 8.58 µM, the IC50 (SK-MEL-1) was > 10.2 µM and the IC50 (LAN-6) was > 10.2 µM. For the same compound, the IC50 (Lu-65) was > 10.2 µM, the IC50 (C8166) was > 10.2 µM and the IC50 (RS4-11) was > 10.2 µM. For the same compound, the IC50 (RCC10RGB) was > 10.2 µM, the IC50 (GI-ME-N) was > 10.2 µM and the IC50 (MN-60) was > 10.2 µM. For the same compound, the IC50 (TGW) was > 10.2 µM, the IC50 (SCH) was > 10.2 µM and the IC50 (DB) was > 10.2 µM. The IC50 (SBC-1) was 7.97 µM, the IC50 (KS-1) was 8.01 µM and the IC50 (LNCaP-Clone-FGC) was > 10.2 µM. For the same compound, the IC50 (no-11) was > 10.2 µM, the IC50 (SK-UT-1) was > 10.2 µM and the IC50 (NCI-H1092) was > 10.2 µM. The IC50 (HD-MY-Z) was > 10.2 µM, the IC50 (GOTO) was > 10.2 µM and the IC50 (KURAMOCHI) was > 10.2 µM. For the same compound, the IC50 (NB10) was > 10.2 µM, the IC50 (HEL) was > 10.2 µM and the IC50 (IST-SL1) was > 10.2 µM. For the same compound, the IC50 (MOLT-16) was > 10.2 µM, the IC50 (HAL-01) was > 10.2 µM and the IC50 (NCI-H23) was > 10.2 µM. For the same compound, the IC50 (COLO-829) was > 10.2 µM, the IC50 (GT3TKB) was > 10.2 µM and the IC50 (ONS-76) was > 10.2 µM. The IC50 (ALL-PO) was > 10.2 µM, the IC50 (NKM-1) was > 10.2 µM and the IC50 (NCI-H1838) was > 10.2 µM. For the same compound, the IC50 (KALS-1) was > 10.2 µM, the IC50 (ATN-1) was > 10.2 µM and the IC50 (LXF-289 cell line) was > 10.2 µM. The IC50 (NB5) was > 10.2 µM.

`CCCCCCCCCCCC1=C(O)C(=O)C=C(O)C1=O` [EMBELIN] was tested, and the IC50 (TE-8) was 11 µM, the IC50 (NCI-H1395) was > 32 µM and the IC50 (NMC-G1) was 6.97 µM. The IC50 (EW-16) was 4.27 µM, the IC50 (KM-H2) was 26.5 µM and the IC50 (NCI-H1581) was > 32 µM. For the same compound, the IC50 (CTB-1) was 28 µM, the IC50 (RPMI-8226) was 13.7 µM and the IC50 (COLO-800) was > 32 µM. The IC50 (OVCAR-4) was 12.3 µM, the IC50 (NCI-H69) was > 32 µM and the IC50 (LC-2-ad) was 12.9 µM. The IC50 (NCI-H1648) was 9.3 µM, the IC50 (SK-MEL-1) was > 32 µM and the IC50 (LAN-6) was > 32 µM. For the same compound, the IC50 (Lu-65) was > 32 µM, the IC50 (C8166) was 7.64 µM and the IC50 (RS4-11) was 10.5 µM. For the same compound, the IC50 (RCC10RGB) was > 32 µM, the IC50 (GI-ME-N) was > 32 µM and the IC50 (MN-60) was > 32 µM. For the same compound, the IC50 (TGW) was > 32 µM, the IC50 (SCH) was > 32 µM and the IC50 (DB) was > 32 µM. For the same compound, the IC50 (SBC-1) was 28.5 µM, the IC50 (KS-1) was 14.5 µM and the IC50 (LNCaP-Clone-FGC) was 21.9 µM. The IC50 (no-11) was 9.88 µM, the IC50 (SK-UT-1) was 4.69 µM and the IC50 (NCI-H1092) was > 32 µM. For the same compound, the IC50 (HD-MY-Z) was 26.9 µM, the IC50 (GOTO) was 23.6 µM and the IC50 (KURAMOCHI) was 7.06 µM. The IC50 (NB10) was > 32 µM, the IC50 (HEL) was 11.2 µM and the IC50 (IST-SL1) was > 32 µM. For the same compound, the IC50 (MOLT-16) was 11.9 µM, the IC50 (HAL-01) was 25.8 µM and the IC50 (NCI-H23) was > 32 µM. It also gave an IC50 (COLO-829) of 5.29 µM, an IC50 (GT3TKB) of 3.62 µM and an IC50 (ONS-76) of 8.45 µM. The IC50 (ALL-PO) was 3.65 µM, the IC50 (NKM-1) was > 32 µM and the IC50 (NCI-H1838) was > 32 µM. The IC50 (KALS-1) was 14.9 µM, the IC50 (ATN-1) was > 32 µM and the IC50 (LXF-289 cell line) was 9 µM. The IC50 (NB5) was 22.4 µM.
